From patent US11713318B2, “Short conjugated oligoelectrolytes and uses thereof” (The Regents Of The University Of California, priority 2018, dated 2023)

Key:
[1] = test system: A. baumannii 1674627 (MDR); assay: MIC against resistant strains, Tables 5a-5d; format: cell-based; conditions: Acinetobacter baumannii, n = 3
Experimental: (§1) Compounds described herein were evaluated for growth inhibition against a variety of bacterial species, including strains that have developed resistance to common antibacterial treatments, according to the procedure described herein, or by analogous procedures known to those skilled in the art. Resistant bacterial strains used for compound testing include methicillin-resistant S. aureus (MRSA), vancomycin resistant Enterococci (VRE) and various multi-drug resistant (MDR) strains commonly associated with hospital-acquired (nosocomial) infections, including, but not limited to A. baumannii, K. pnuemoniae, and E. cloacae.

[2] = test system: A. baumannii CDC0290 (MDR); assay: MIC against resistant strains, Tables 5a-5d; format: cell-based; conditions: Acinetobacter baumannii, n = 3
Experimental: as §1

E. faecium 1674620 (VRE) = assay: MIC against resistant strains, Tables 5a-5d; format: cell-based; conditions: Enterococcus faecium, n = 3
Experimental: as §1

[3] = test system: K. pneumoniae CDC0010 (MDR); assay: MIC against resistant strains, Tables 5a-5d; format: cell-based; conditions: Klebsiella pneumoniae, n = 3
Experimental: as §1

[4] = test system: P. aeruginosa 1674623 (MDR); assay: MIC against resistant strains, Tables 5a-5d; format: cell-based; conditions: Pseudomonas aeruginosa, n = 3
Experimental: as §1

[5] = test system: S. aureus ATCC 33591 (MRSA); assay: MIC against resistant strains, Tables 5a-5d; format: cell-based; conditions: Staphylococcus aureus, n = 3
Experimental: as §1

[6] = test system: S. aureus ATCC BAA-1717 (MRSA); assay: MIC against resistant strains, Tables 5a-5d; format: cell-based; conditions: Staphylococcus aureus, n = 3
Experimental: as §1

[7] = test system: Hep G2 (ATCC HB-8065) cells; assay: Cytotoxicity, MTT assay; format: cell-based; conditions: Homo sapiens, HepG2, 24 h, Hep G2; MTT, 24 hours incubation; read-out: IC50
Experimental: (§2) Before removing the frozen cell stocks from liquid nitrogen, culture medium was pre-warmed to 37° C. The frozen tube was then removed from liquid nitrogen and placed into a 37° C. water bath and shaken gently to thaw the cell stock as quickly as possible. A small portion of the pre-warmed culture medium was added to the cell solution. The cell suspension was then centrifuged at 1000 r/min for 3 minutes. The supernatant was discarded and the cells were resuspended in fresh culture medium.
(§3) NIH 3T3 (ATCC CRL-1658) and Hep G2 (ATCC HB-8065) cells were cultured with DMEM+10% FBS in 100 mm dishes. Cells were lifted for subculture or testing when confluence reached ˜60% by treating with 1× trypsin (incubated for 3 min at 37° C.). J774 (ATCC TIB-67) cells were cultured with DMEM+10% FBS in 100 mm dishes. Cells were lifted for subculture or testing when confluence reached ˜80% using a cell scraper. RAW264.7 (ATCC TIB-71) cells were cultured with DMEM+10% heat-inactivated FBS+1% pen/strep in T75 flasks. Cells were lifted for subculture or testing when confluence reached ˜80% using a cell scraper.
(§4) • 1. Cells were lifted and resuspended in culture medium. The number of cells in the cell suspension was determined using an auto-cell counter: 10 μL of the cell suspension was mixed with 10 μL 1× trypan blue (filtered with 0.2 μm PES filter) and the mixture was loaded onto a cell counting slide. Based on the concentration of viable cells, the cell suspension was further diluted to achieve the desired density. • 2. Cells were seeded in 96 well plates by adding 100 μL final cell suspension column-by-column using a multichannel pipette (5000 cells/well for NIH 3T3, 10000 cells/well for Hep G2, J774 and RAW264.7). The outer wells were block with PBS to reduce the effects of evaporation. One column was filled with only culture medium as a blank. Cells were incubated overnight before adding the test articles. • 3. Test articles were dissolved in 1×PBS (or DMSO) to obtain stocks solution. Stock solutions were pre-warmed before use. […] Serial dilutions (2-fold) of the 10× solutions were made in sterile culture tubes by diluting in 1×PBS (8 dilutions to yield 9 test concentrations). 900 μL of culture media was added to each tube to obtain final drug solution containing 10% PBS (or less than 1% DMSO) for each experimental group. • 4. The original culture medium was gently removed from the 96-well plates using a pipette. 100 μL of the test article solutions prepared in Step 3 were added to rows 2-7 of each column to obtain six replicates for each concentration. Plates were then incubated for 24 hours. • 5. MTT solutions were prepared by dissolving commercial MTT powder in 1×PBS to a concentration of 5 mg/mL. After passing through a 0.22 μm PES filter, the MTT solution was divided into 1 mL portions in sterile centrifuge tubes and stored at −20° C. • 6. MTT stock solutions were removed from the freezer to thaw at room temperature. Before adding MTT solutions, cell cultures were visually inspected and imaged using a microscope (to use as a comparison with MTT results). 10 μL of the 5 mg/mL MTT solution was added to each well and the plate was incubated for 4 hours. • 7. After 4 h incubation, the culture medium/MT solution was removed gently using a pipette. 100 μL of DMSO was added to each well using a multichannel pipette. The 96-well plates were analyzed in a plate reader using the following method: shake for 5 minutes, wait for 30 seconds, and measure absorbance at 570 nm. • 8. Data processing: The average of background Abg was calculated from the blank column. All other data was first treated by subtracting Abg. The average A. and standard deviation Se of each experimental group and the average Ac and standard deviation Sc for control group (with pure culture medium incubation) were then calculated. The cell viability was determined as Ae/Ac×100% and corresponding error as Se/Ae×100%. Significant outliers in any experimental or control group were removed. […]

J774 (ATCC TIB-67) cells = assay: Cytotoxicity, MTT assay; format: cell-based; conditions: Mus musculus, MTT, 24 hours incubation, read-out: IC50
Experimental: as §2, §3, §4

[8] = test system: NIH 3T3 (ATCC CRL-1658) cells; assay: Cytotoxicity, MTT assay; format: cell-based; conditions: Mus musculus, NIH3T3; NIH 3T3; MTT, 24 hours incubation; read-out: IC50
Experimental: as §2, §3, §4

Hep G2 cells = assay: Cytotoxicity tested by Eurofins Pharma Discovery Services; format: cell-based; conditions: Homo sapiens, HepG2; Hep G2; data provided by Eurofins; read-out: IC50
[9] = test system: primary human hepatocytes; assay: as above; format: cell-based; conditions: Hepatocyte, data provided by Eurofins, read-out: IC50
HRPTEpiC = assay: as above; format: cell-based; conditions: data provided by Eurofins, read-out: IC50
[10] = test system: S. epidermidis (ATCC 14990); assay: MIC broth microdilution method, Table 3; conditions: Staphylococcus epidermidis, ATCC14990
E. coli K12 (ATCC 47076) = assay: MIC broth microdilution method, Table 3; conditions: Escherichia coli, ATCC47076

| SMILES | MIC [1] | MIC [2] | MIC (E. faecium 1674620 (VRE)) | MIC [3] | MIC [4] | MIC [5] | MIC [6] | IC50 [7] | IC50 (J774 (ATCC TIB-67) cells) | IC50 [8] | IC50 (Hep G2 cells) | IC50 [9] | IC50 (HRPTEpiC) | MIC [10] | MIC (E. coli K12 (ATCC 47076)) |
| --- | --- | --- | --- | --- | --- | --- | --- | --- | --- | --- | --- | --- | --- | --- | --- |
| CCCCCC[N+](C)(C)CCCCCCOc1cc(/C=C/c2cc(OCCCCCC[N+](C)(C)CCCCCC)cc(OCCCCCC[N+](C)(C)CCCCCC)c2)cc(OCCCCCC[N+](C)(C)CCCCCC)c1 [Formula E] | 4 µg/mL | 4 µg/mL | 0.25 µg/mL | 4 µg/mL | 8 µg/mL | 0.5 µg/mL | 0.5 µg/mL | 7.3 µg/mL | 2.5 µg/mL | 10.4 µg/mL | 5.6 µg/mL | 13.2 µg/mL | 2.6 µg/mL | 4 µg/mL | 4 µg/mL |
| C[N+](C)(C)CCCCOc1cc(/C=C/c2ccc(/C=C/c3cc(OCCCC[N+](C)(C)C)cc(OCCCC[N+](C)(C)C)c3)cc2)cc(OCCCC[N+](C)(C)C)c1.[I-].[I-].[I-].[I-] [Formula F] | 64 µg/mL | 64 µg/mL | 8 µg/mL | 64 µg/mL | > 64 µg/mL | 2 µg/mL | 2 µg/mL | > 1020 µg/mL | > 128 µg/mL | > 128 µg/mL | > 324 µg/mL | > 324 µg/mL | 79.2 µg/mL | 2 µg/mL | 32 µg/mL |
